pIC50: −log10 of the molar value.
target: human MGL from HeLa cells (Homo sapiens (Human), UniProt Q99685); assay: MGL in vitro activity assay ([glycerol-1,3-3H]-oleoyl glycerol hydrolysis, activated carbon filtration); format: biochemical; conditions: 300 nM [Glycerol-1,3-3H]-oleoyl glycerol, one hour
Summary of the method: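 Activity measured as tritium in the flow-through after activated carbon filtration of a 1 h reaction containing 300 nM 3H-oleoyl glycerol, compound and HeLa-derived human MGL. Compounds screened at 10 μM; IC50 series start at an empirically chosen highest concentration.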

Chain of human MGL from HeLa cells (Q99685 whole entry): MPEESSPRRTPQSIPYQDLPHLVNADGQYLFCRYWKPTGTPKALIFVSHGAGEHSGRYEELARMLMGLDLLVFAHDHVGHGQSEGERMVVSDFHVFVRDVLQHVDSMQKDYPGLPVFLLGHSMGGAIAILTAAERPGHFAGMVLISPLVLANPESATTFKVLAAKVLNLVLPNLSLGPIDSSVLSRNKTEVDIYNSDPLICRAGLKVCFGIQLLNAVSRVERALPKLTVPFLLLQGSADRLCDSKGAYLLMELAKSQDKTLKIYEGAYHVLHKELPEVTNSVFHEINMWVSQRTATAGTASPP

pIC50	Structure (SMILES)
7.12	COc1ccc(CC2CCC3(C2)CN(C(=O)[C@H]2C[C@@](C)(O)C2)C3)cc1 (mixture of isomers) [Example 205, (rac)-((1s,3s)-3-Hydroxy-3-methylcyclobutyl)(6-(4-methoxybenzyl)-2-azaspiro[3.4]octan-2-yl)methanone]
7.01	C[C@]1(O)C[C@@H](C(=O)N2CC3(CCC(Cc4ccccc4)C3)C2)C1 (mixture of isomers) [Example 234, (rac)-(6-Benzyl-2-azaspiro[3.4]octan-2-yl)((1s,3s)-3-hydroxy-3-methylcyclobutyl)methanone]
6.91	CC(C)(C)c1ccc(OC2CCC3(C2)CN(C(=O)[C@H]2C[C@@](C)(O)C2)C3)cc1 (mixture of isomers) [Example 240, (rac)-(6-(4-(tert-Butyl)phenoxy)-2-azaspiro[3.4]octan-2-yl)((1s,3s)-3-hydroxy-3-methylcyclobutyl)methanone]
7.59	CC(C)(C)c1cccc(OC2CCC3(C2)CN(C(=O)[C@H]2C[C@@](C)(O)C2)C3)c1 (mixture of isomers) [Example 243, (rac)-(6-(3-(tert-Butyl)phenoxy)-2-azaspiro[3.4]octan-2-yl)((1s,3s)-3-hydroxy-3-methylcyclobutyl)methanone]
7.59	Cc1c(OC2CCC3(C2)CN(C(=O)[C@H]2C[C@@](C)(O)C2)C3)cccc1C(F)(F)F (mixture of isomers) [Example 253, (rac)-((1s,3s)-3-Hydroxy-3-methylcyclobutyl)(6-(2-methyl-3-(trifluoromethyl)phenoxy)-2-azaspiro[3.4]octan-2-yl)methanone]
7.68	Cc1cc(OC2CCC3(C2)CN(C(=O)[C@H]2C[C@@](C)(O)C2)C3)ccc1C(F)(F)F (mixture of isomers) [Example 254, (rac)-((1s,3s)-3-Hydroxy-3-methylcyclobutyl)(6-(3-methyl-4-(trifluoromethyl)phenoxy)-2-azaspiro[3.4]octan-2-yl)methanone]
7.82	Cc1cc(C(F)(F)F)ccc1OC1CCC2(C1)CN(C(=O)[C@H]1C[C@@](C)(O)C1)C2 (mixture of isomers) [Example 255, (rac)-((1s,3s)-3-Hydroxy-3-methylcyclobutyl)(6-(2-methyl-4-(trifluoromethyl)phenoxy)-2-azaspiro[3.4]octan-2-yl)methanone]
7.13	Cc1ccc(OC2CCC3(C2)CN(C(=O)[C@H]2C[C@@](C)(O)C2)C3)cc1C(F)(F)F (mixture of isomers) [Example 256, (rac)-((1s,3s)-3-Hydroxy-3-methylcyclobutyl)(6-(4-methyl-3-(trifluoromethyl)phenoxy)-2-azaspiro[3.4]octan-2-yl)methanone]
7.31	CC(c1cccc2ccnn12)C1CC2(C1)CN(C(=O)[C@H]1C[C@@](C)(O)C1)C2 (mixture of isomers) [Example 316, (rac)-((1s,3s)-3-Hydroxy-3-methylcyclobutyl)(6-(1-(pyrazolo[1,5-a]pyridin-7-yl)ethyl)-2-azaspiro[3.3]heptan-2-yl)methanone]
7.42	CC(C)c1cccc(C2CCC3(C2)CN(C(=O)[C@H]2C[C@](O)(C(F)F)C2)C3)c1 (mixture of isomers) [Example 319, (rac)-((1s,3s)-3-(Difluoromethyl)-3-hydroxycyclobutyl)(6-(3-isopropylphenyl)-2-azaspiro[3.4]octan-2-yl)methanone]
7.74	CC(F)(F)c1ccc(C2CCC3(C2)CN(C(=O)[C@H]2C[C@@](C)(O)C2)C3)cc1 (mixture of isomers) [Example 320, (rac)-(6-(4-(1,1-Difluoroethyl)phenyl)-2-azaspiro[3.4]octan-2-yl)((1s,3s)-3-hydroxy-3-methylcyclobutyl)methanone]
6.78	C[C@]1(O)C[C@@H](C(=O)N2CC3(CCC(c4ccc5c(c4)OCC5)C3)C2)C1 (mixture of isomers) [Example 323, (rac)-(6-(2,3-Dihydrobenzofuran-6-yl)-2-azaspiro[3.4]octan-2-yl)((1s,3s)-3-hydroxy-3-methylcyclobutyl)methanone]
6.08	C[C@]1(O)C[C@@H](C(=O)N2CC3(CCC(c4cccn5nccc45)C3)C2)C1 (mixture of isomers) [Example 324, (rac)-((1s,3s)-3-Hydroxy-3-methylcyclobutyl)(6-(pyrazolo[1,5-c]pyridin-4-yl)-2-azaspiro[3.4]octan-2-yl)methanone]
6.46	C[C@]1(O)C[C@@H](C(=O)N2CC3(CCC(c4cc5ccccn5n4)C3)C2)C1 (mixture of isomers) [Example 325, (rac)-((1s,3s)-3-Hydroxy-3-methylcyclobutyl)(6-(pyrazolo[1,5-c]pyridin-2-yl)-2-azaspiro[3.4]octan-2-yl)methanone]
6.73	Cn1ncc2c(C3CCC4(C3)CN(C(=O)[C@H]3C[C@@](C)(O)C3)C4)cccc21 (mixture of isomers) [Example 326, (rac)-((1s,3s)-3-Hydroxy-3-methylcyclobutyl)(6-(1-methyl-1H-indazol-4-yl)-2-azaspiro[3.4]octan-2-yl)methanone]
5.51	C[C@]1(O)C[C@@H](C(=O)N2CC3(CCC(c4cccn5ccnc45)C3)C2)C1 (mixture of isomers) [Example 327, (rac)-((1s,3s)-3-Hydroxy-3-methylcyclobutyl)(6-(imidazo[1,2-c]pyridin-8-yl)-2-azaspiro[3.4]octan-2-yl)methanone]
5.43	C[C@]1(O)C[C@@H](C(=O)N2CC3(CCC(c4ccn5ccnc5c4)C3)C2)C1 (mixture of isomers) [Example 328, (rac)-((1s,3s)-3-Hydroxy-3-methylcyclobutyl)(6-(imidazo[1,2-a]pyridin-7-yl)-2-azaspiro[3.4]octan-2-yl)methanone]
6.17	C[C@]1(O)C[C@@H](C(=O)N2CC3(CCC(c4ncn5ccccc45)C3)C2)C1 (mixture of isomers) [Example 329, (rac)-((1s,3s)-3-Hydroxy-3-methylcyclobutyl)(6-(imidazo[1,5-a]pyridin-1-yl)-2-azaspiro[3.4]octan-2-yl)methanone]
5.62	C[C@]1(O)C[C@@H](C(=O)N2CC3(CCC(c4ncn5c4CCCC5)C3)C2)C1 (mixture of isomers) [Example 330, (rac)-((1s,3s)-3-Hydroxy-3-methylcyclobutyl)(6-(5,6,7,8-tetrahydroimidazo[1,5-a]pyridin-1-yl)-2-azaspiro[3.4]octan-2-yl)methanone]
5.99	C[C@]1(O)C[C@@H](C(=O)N2CC3(CCC(c4cc5n(n4)CCCC5)C3)C2)C1 (mixture of isomers) [Example 331, (rac)-((1s,3s)-3-Hydroxy-3-methylcyclobutyl)(6-(4,5,6,7-tetrahydropyrazolo[1,5-a]pyridin-2-yl)-2-azaspiro[3.4]octan-2-yl)methanone]
6.87	Cc1ccc(OC2CCC3(C2)CN(C(=O)[C@H]2C[C@@](C)(O)C2)C3)cc1C1CC1 (mixture of isomers) [Example 332, (rac)-(6-(3-Cyclopropyl-4-methylphenoxy)-2-azaspiro[3.4]octan-2-yl)((1s,3s)-3-hydroxy-3-methylcyclobutyl)methanone]
7.43	Cc1c(OC2CCC3(C2)CN(C(=O)[C@H]2C[C@@](C)(O)C2)C3)cccc1C1CC1 (mixture of isomers) [Example 333, (rac)-(6-(3-Cyclopropyl-2-methylphenoxy)-2-azaspiro[3.4]octan-2-yl)((1s,3s)-3-hydroxy-3-methylcyclobutyl)methanone]
6.90	C[C@]1(O)C[C@@H](C(=O)N2CC3(CCC(Oc4cccc(C5CC5)c4F)C3)C2)C1 (mixture of isomers) [Example 334, (rac)-(6-(3-Cyclopropyl-2-fluorophenoxy)-2-azaspiro[3.4]octan-2-yl)((1s,3s)-3-hydroxy-3-methylcyclobutyl)methanone]

Reference: patent US11802111B2, “Cyclobutyl amide monoacylglycerol lipase modulators” (Janssen Pharmaceutica NV, priority 2020, dated 2023)
